Experimental data reported in patent US20250195463A1, “ORGANOMETALLIC COMPLEX, CONTROLLED-RELEASE MULTI-FUNCTIONAL DRUG, PHARMACEUTICAL COMPOSITION, PROCESSES FOR THE PREPARATION THEREOF AND THEIR USE” (FACULDADE DE CIÊNCIAS DA UNIVERSIDADE DE LISBOA, priority 2022, published 2025).
Read-outs that look alike come from different tables or passages of the source. Where a SMILES comes first, the peptide text is derived from it. [ ]: non-standard residue; d: D form. The star is where a group is joined. Levulinoyl = CC(=O)CCC(=O)*

How the values were obtained:
[1] = system: MCF-7 (FGFR−); assay: MTT cytotoxicity assay; settings: human, 48 h
Method: (§1) By way of example, the in vitro cytotoxicity of the conjugate RuPC1, complex 4 and peptide P2 was determined in four human breast cancer cell lines with different levels of expression of the receptor FGFR, namely MDA-MB-231 (FGFR−), MCF-7 (FGFR−), SK-BR-3 (FGFR+), and MDA-MB-134-VI (FGFR+). The cytotoxicity of RuPC1 was also determined in the stated cell lines at controlled pH 6.8 and 7.4. The cytotoxicity of the complexes 5, 8, 9, and the reference complex (2,2′-bipyridyl)(triphenylphosphane)(f-cyclopentadienyl)ruthenium(II) trifluoromethanesulfonate, [RuCp(PPh3)(bipy)][CF3SO3] (TM34) was only determined in the cell line MDA-MB-231. All the cell lines were from the American Type Culture Collection (ATCC) and were cultured in Dulbecco's Modified Eagle Medium+Glutamax-I (Gibco) supplemented with 10% fetal bovine serum (FBS) and 1% antibiotics, excepting the MDA-MB-134-VI for which it was used the double amount of FBS. The cell cultures were kept in an incubator Heraeus at 37° C. under humidified atmosphere at 5% CO2. The cell viability was evaluated resorting to the MTT ([3-(4,5-dimethylthiazol-2-yl)-2,5-diphenyltetrazolium bromide]) colorimetric assay, which is based on the reduction of the tetrazolium salt to purple formazan by mitochondrial dehydrogenases in metabolically active cells. For the assays, the cells were seeded in 96-well plates (2×10^4 to 3×10^4 cells/200 μL) and allowed to adhere overnight. The compounds were first dissolved in dimethyl sulfoxide to obtain 10 mM stock solutions, further used to prepare the working solutions, at 0.1 to 100 μM, by dilution in the cell culture medium. Alternatively, for the assays at controlled pH 6.8 and 7.4, RuPC1 was first dissolved in a solution of 15% dimethyl sulfoxide/85% phosphate buffer (10 mM in water) to obtain 1.5 mM stock solutions further incubated for 48 hours at both pH values prior to be used to prepare the working solutions, at 0.1 to 50 μM, by dilution in the cell culture medium. In both cases, after continuous exposure of the cells to the compounds for 48 h at 37° C., the medium was removed and the cells were incubated with 200 μL of MTT solution (0.5 mg/mL) for 3 h. Then, the solution was discarded and the purple formazan formed by the viable cells was dissolved in 200 μL of dimethyl sulfoxide. The cell viability (%) was determined relative to the control (cells incubated without compounds) by measuring the absorbance at 570 nm on a PowerWave Xs Bio-Tek Instruments plate spectrophotometer. The respective values of the half maximal inhibitory concentration (IC50) were calculated with the software GraphPad Prism. All the compounds were tested in at least two independent experiments, each comprising six replicates per concentration.

[2] = system: MDA-MB-134-VI (FGFR+); assay: MTT cytotoxicity assay; settings: human, 48 h
Method: as §1

[3] = system: MDA-MB-231 (FGFR−); assay: MTT cytotoxicity assay; settings: 48 h
Method: as §1

[4] = system: SK-BR-3 (FGFR+); assay: MTT cytotoxicity assay; settings: human, 48 h
Method: as §1

[5] = system: four human breast cancer cell lines with different levels of expression of the receptor FGFR; assay: MTT cytotoxicity assay, comparisons across the cell line panel; format: cell-based; settings: adopted experimental conditions (48 h)
Method: By way of example, the in vitro cytotoxicity of the conjugate RuPC1, complex 4 and peptide P2 was determined in four human breast cancer cell lines with different levels of expression of the receptor FGFR, namely MDA-MB-231 (FGFR−), MCF-7 (FGFR−), SK-BR-3 (FGFR+), and MDA-MB-134-VI (FGFR+). The cytotoxicity of RuPC1 was also determined in the stated cell lines at controlled pH 6.8 and 7.4. The cytotoxicity of the complexes 5, 8, 9, and the reference complex (2,2′-bipyridyl)(triphenylphosphane)(f-cyclopentadienyl)ruthenium(II) trifluoromethanesulfonate, [RuCp(PPh3)(bipy)][CF3SO3] (TM34) was only determined in the cell line MDA-MB-231. […] The cell viability was evaluated resorting to the MTT ([3-(4,5-dimethylthiazol-2-yl)-2,5-diphenyltetrazolium bromide]) colorimetric assay, which is based on the reduction of the tetrazolium salt to purple formazan by mitochondrial dehydrogenases in metabolically active cells. […] The cell viability (%) was determined relative to the control (cells incubated without compounds) by measuring the absorbance at 570 nm on a PowerWave Xs Bio-Tek Instruments plate spectrophotometer. The respective values of the half maximal inhibitory concentration (IC50) were calculated with the software GraphPad Prism. […]

Work on `CC(=O)CCC(=O)N[C@@H](C(=O)N[C@@H](CO)C(=O)N1CCC[C@H]1C(=O)N1CCC[C@@H]1C(=O)N[C@@H](CC(C)C)C(=O)N[C@H](C(=O)N[C@@H](CC(C)C)C(=O)NCC(=O)N[C@@H](CCC(N)=O)C(=O)N[C@@H](CC(C)C)C(=O)N[C@@H](CC(C)C)C(=O)N[C@@H](CO)C(N)=O)[C@@H](C)O)C(C)C` [peptide P2, 4-oxopetanoyl-NH-^1valine-^2serine-^3proline-^4proline-^5leucine-^6threonine-^7leucine-^8glycine-^9glutamine-^10leucine-^11leucine-^12serine-CONH2] (Levulinoyl-[dV]SP[dP]LTLGQLLS-NH2) yielded an IC50 [1] of over 100 µM, an IC50 [2] of over 100 µM and an IC50 ([3]; human) of over 100 µM. The IC50 [4] was over 100 µM and the “Cytotoxic activity in words” value [5] was “did not show significant cytotoxic activity”.
`O=S(=O)([O-])C(F)(F)F.[Ru+2].c1cc[cH-]c1.c1ccc(-c2ccccn2)nc1.c1ccc(P(c2ccccc2)c2ccccc2)cc1` [TM34, (2,2′-bipyridyl)(triphenylphosphane)(f-cyclopentadienyl)ruthenium(II) trifluoromethanesulfonate, reference compound] gave an IC50 ([3]; read-out: Cytotoxic activity expressed as IC50, Table 5, MDA-MB-231, 37° C.) of 0.52 µM.
